# Results: PubChem BioAssay (NCI)
#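 Briefly, cells in 96-well plates were exposed to five compound concentrations for 48 h, and endpoints were estimated by linear interpolation. Here, GI50 denotes the concentration required for 50% inhibition of growth. TGI: total growth inhibition.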
# What was measured:
# Assay in all cases: NCI tumour cell line growth inhibition, 48 h
# A549 NSCLC = test system: A549 NSCLC
# CCRF-CEM leukemia = test system: CCRF-CEM leukemia
# MDA-MB-231 breast = test system: MDA-MB-231 breast
# NCI-H23 lung = test system: NCI-H23 lung
# SW-620 colon = test system: SW-620 colon
# UO-31 renal = test system: UO-31 renal
# CAKI-1 renal = test system: CAKI-1 renal
# OVCAR-4 ovarian = test system: OVCAR-4 ovarian
# SK-OV-3 ovarian = test system: SK-OV-3 ovarian
# PC-3 prostate = test system: PC-3 prostate
Structure (SMILES),TGI (A549 NSCLC) [µM],TGI (CCRF-CEM leukemia) [µM],TGI (MDA-MB-231 breast) [µM],TGI (NCI-H23 lung) [µM],TGI (SW-620 colon) [µM],TGI (UO-31 renal) [µM],TGI (CAKI-1 renal) [µM],TGI (OVCAR-4 ovarian) [µM],TGI (SK-OV-3 ovarian) [µM],TGI (PC-3 prostate) [µM],GI50 (CAKI-1 renal) [µM],GI50 (MDA-MB-231 breast) [µM],GI50 (OVCAR-4 ovarian) [µM],GI50 (PC-3 prostate) [µM],GI50 (SK-OV-3 ovarian) [µM],GI50 (SW-620 colon) [µM],GI50 (UO-31 renal) [µM],GI50 (A549 NSCLC) [µM],GI50 (CCRF-CEM leukemia) [µM],GI50 (NCI-H23 lung) [µM]
O=S(=O)(/N=C1/SC(=Nc2ccccc2)N(c2ccccc2)/C1=N/S(=O)(=O)c1ccccc1)c1ccccc1,69,55,35.6,34.5,44.2,39.9,–,–,–,–,–,–,–,–,–,–,–,–,–,–
COc1cc(C2(C)SCCCS2)c(I)c(OC)c1OC,> 100,> 100,–,> 100,> 100,> 100,> 100,> 100,> 100,–,–,–,–,–,–,–,–,–,–,–
CCOC(=O)c1cc(-c2ccn(C(C)=O)c2)c(-c2cc(C)co2)[nH]1,> 100,> 100,> 100,> 100,> 100,> 100,> 100,> 100,–,> 100,–,–,–,–,–,–,–,–,–,–
O=C(NCc1cccnc1)C(=O)NCc1cccnc1,> 100,–,> 100,> 100,> 100,> 100,> 100,> 100,> 100,> 100,–,–,–,–,–,–,–,–,–,–
CCOC(=O)C[n+]1ccc2c([nH]c3cc(OC)ccc32)c1C,> 100,> 100,–,> 100,> 100,> 100,> 100,> 100,> 100,–,–,–,–,–,–,–,–,–,–,–
COc1ccc(N2C(=O)/C(=C/c3ccc(N(CCC#N)CCC#N)cc3)N=C2c2ccccc2)c(OC)c1,–,74.9,> 100,> 100,> 100,> 100,> 100,> 100,> 100,–,–,–,–,–,–,–,–,–,–,–
Cc1ccc(S(=O)(=O)N2CCN(CCO)CCN(S(=O)(=O)c3ccc(C)cc3)CCN(CCO)CC2)cc1,57,54,48.4,45.9,> 100,> 100,> 100,37.6,–,> 100,–,–,–,–,–,–,–,–,–,–
c1cc2ccc1CNCCN1CCNCc3ccc(cc3)Oc3ccc(cc3)CNCCN(CCNCc3ccc(cc3)O2)CCNCc2ccc(cc2)Oc2ccc(cc2)CNCC1,–,–,1.75,–,2.63,26.4,12.9,3.34,3.15,1.24,3.07,0.521,1.79,0.358,1.72,1.11,11.3,–,–,–
CC(C)c1nccn1Cc1ccc(Cl)cc1Cl,> 100,–,> 100,> 100,> 100,> 100,> 100,> 100,> 100,> 100,–,–,–,–,–,–,–,–,–,–
O=C(O)CCCc1ccc2c(c1)CC1(C2)Cc2ccc(CCCC(=O)O)cc2C1,> 100,> 100,> 100,> 100,–,> 100,–,> 100,> 100,> 100,–,–,–,–,–,–,–,–,–,–
NC1CCCCC1N.O=S(=O)([O-])CCCN1CCN(CCO)CC1.O=S(=O)([O-])CCCN1CCN(CCO)CC1.[Pt+4],> 100,> 50.5,–,> 100,21,> 100,9.16,19.2,> 100,–,0.856,–,1.63,–,> 87.2,2.29,13.5,4.7,2.21,7.36
